Test results as given in US20150335657A1, “Methods for Modulating Sirtuin Enzymes” (The Trustees of Princeton University, priority 2014, published 2015).

Columns and labels:
[1] = biological target: T1, SIRT1 (Homo sapiens, UniProt Q96EB6); test: Sirtuin deacetylase enzyme activity assay (Cayman Chemical), compound screen; type: biochemical; conditions: compound at 50 μM; Z-score of change in fluorescent signal; + increase, − decrease
T1 construct: purchased Cayman Chemical
T1 sequence (Q96EB6 1-747): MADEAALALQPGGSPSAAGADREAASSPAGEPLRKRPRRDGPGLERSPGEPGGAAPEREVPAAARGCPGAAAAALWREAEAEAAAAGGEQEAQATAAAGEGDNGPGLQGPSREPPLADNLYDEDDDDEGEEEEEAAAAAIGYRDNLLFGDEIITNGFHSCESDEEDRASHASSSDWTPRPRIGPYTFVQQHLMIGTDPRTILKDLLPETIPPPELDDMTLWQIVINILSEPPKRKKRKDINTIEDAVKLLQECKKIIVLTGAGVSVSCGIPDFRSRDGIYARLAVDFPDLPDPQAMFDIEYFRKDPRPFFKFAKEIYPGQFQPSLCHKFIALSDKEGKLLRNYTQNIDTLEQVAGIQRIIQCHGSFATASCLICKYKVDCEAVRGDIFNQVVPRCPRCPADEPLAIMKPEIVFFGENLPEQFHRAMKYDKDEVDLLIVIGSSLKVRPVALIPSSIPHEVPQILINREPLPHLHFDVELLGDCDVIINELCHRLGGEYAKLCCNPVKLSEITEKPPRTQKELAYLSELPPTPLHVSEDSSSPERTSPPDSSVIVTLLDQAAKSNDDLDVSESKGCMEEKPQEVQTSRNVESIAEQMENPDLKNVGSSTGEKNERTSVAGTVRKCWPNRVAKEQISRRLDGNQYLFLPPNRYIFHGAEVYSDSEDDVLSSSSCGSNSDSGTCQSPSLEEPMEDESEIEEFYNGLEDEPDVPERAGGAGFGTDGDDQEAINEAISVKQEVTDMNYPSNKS
Source text: (§1) Sirtuins have been identified as innate viral restriction factors and it has been previously shown that drugs that modulate the activity of these enzymes block the production of multiple viruses in culture (see, e.g., WO 2012/106509). Sirtuins are NAD-dependent enzymes that regulate the activity of target proteins by post-translational modifications and thereby control key cellular events (see, e.g., Haigis and Sinclair (2010) Ann Rev Pathol Mech Dis 5:253-95). SIRT1, SIRT2, SIRT3 and SIRT6 have shown a detectable deacetylase activity in well-established biochemical assays that utilize recombinant SIRT1, SIRT2, SIRT3, and SIRT6 enzymes and fluorophore-conjugated acetyl-peptides. As described in the Examples below, the deacetylase activity of these sirtuins were used as a surrogate to identify compounds having broad-range antiviral activity.
(§2) A publically disclosed, small molecule library consisting of approximately 13,000 compounds was screened using a commercially available (Cayman Chemical) enzyme activity assay. Deacetylase activity of sirtuins SIRT1, SIRT2, SIRT3, and SIRT6 was used as a surrogate to identify compounds with the potential for having broad-range antiviral activity. The compounds were tested at a single concentration (50 μM) in microtiter plates and their activity against the four sirtuins was recorded as a change in fluorescent signal intensity. […] Activation of sirtuin activity generated positive Z-scores and inhibition of sirtuin activity produced negative Z-scores.

[2] = biological target: T2, SIRT2 (Homo sapiens, UniProt Q8IXJ6); test: as above; type: biochemical; conditions: compound at 50 μM; Z-score of change in fluorescent signal; + increase, − decrease
T2 construct: purchased Cayman Chemical
T2 sequence (Q8IXJ6 1-389): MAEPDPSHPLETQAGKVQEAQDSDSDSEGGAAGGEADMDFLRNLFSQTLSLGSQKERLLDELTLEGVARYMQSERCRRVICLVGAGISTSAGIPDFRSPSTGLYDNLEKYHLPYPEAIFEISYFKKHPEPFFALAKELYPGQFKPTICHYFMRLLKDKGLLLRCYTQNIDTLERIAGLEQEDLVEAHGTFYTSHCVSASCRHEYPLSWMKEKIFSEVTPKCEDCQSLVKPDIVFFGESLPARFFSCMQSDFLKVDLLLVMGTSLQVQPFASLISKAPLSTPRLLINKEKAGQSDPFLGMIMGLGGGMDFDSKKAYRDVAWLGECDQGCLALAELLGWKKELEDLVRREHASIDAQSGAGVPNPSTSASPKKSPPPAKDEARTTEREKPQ
Source text: as §1, §2

[3] = biological target: T3, SIRT3 (Homo sapiens, UniProt Q9NTG7); test: as above; type: biochemical; conditions: compound at 50 μM; Z-score of change in fluorescent signal; + increase, − decrease
T3 construct: purchased Cayman Chemical
T3 sequence (Q9NTG7 1-399): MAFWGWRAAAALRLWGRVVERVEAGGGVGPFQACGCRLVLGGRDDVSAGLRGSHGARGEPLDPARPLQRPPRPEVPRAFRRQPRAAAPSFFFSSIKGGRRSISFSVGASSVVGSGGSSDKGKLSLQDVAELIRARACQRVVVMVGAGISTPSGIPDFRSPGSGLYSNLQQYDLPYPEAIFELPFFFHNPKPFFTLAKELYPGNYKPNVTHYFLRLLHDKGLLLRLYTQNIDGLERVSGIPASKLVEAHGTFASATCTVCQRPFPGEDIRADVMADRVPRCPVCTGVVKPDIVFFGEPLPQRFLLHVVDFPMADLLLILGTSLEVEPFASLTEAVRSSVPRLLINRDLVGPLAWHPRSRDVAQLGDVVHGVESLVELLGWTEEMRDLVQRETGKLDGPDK
Source text: as §1, §2

[4] = biological target: T4, SIRT6 (Homo sapiens, UniProt Q8N6T7); test: as above; type: biochemical; conditions: compound at 50 μM; Z-score of change in fluorescent signal; + increase, − decrease
T4 construct: purchased Cayman Chemical
Source text: as §1, §2

[5] = test system: human cytomegalovirus (HCMV) AD169 strain; test: Antiviral activity against HCMV in MRC5 fibroblasts (virus yield, fluorescent focus assay); type: cell-based; conditions: Human betaherpesvirus 5, HCMV AD169, 1 infectious unit/cell, treated 2 h after infection, virus in medium at 96 h
[6] = Tetrazolium-based cell viability assay (cytotoxicity); conditions: human

T4 sequence (Q8N6T7 whole entry): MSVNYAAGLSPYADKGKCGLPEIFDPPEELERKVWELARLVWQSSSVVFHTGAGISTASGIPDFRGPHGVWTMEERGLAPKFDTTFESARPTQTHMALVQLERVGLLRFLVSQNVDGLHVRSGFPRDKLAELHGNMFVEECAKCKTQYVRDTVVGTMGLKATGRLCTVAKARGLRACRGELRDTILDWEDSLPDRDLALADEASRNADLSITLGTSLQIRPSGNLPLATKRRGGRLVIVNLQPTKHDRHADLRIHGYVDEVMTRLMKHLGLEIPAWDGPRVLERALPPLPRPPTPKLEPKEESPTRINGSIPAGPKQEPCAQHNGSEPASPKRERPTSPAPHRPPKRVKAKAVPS

Structure (SMILES): Cc1ccccc1C(C)C(CO)NC(=O)c1cn(C)cn1 (stereo not drawn)
- SIRT1 (change in sirtuin deacetylase activity, Z-score class) [1]: −−− (Z-score ≦ −3 = −−−)
- SIRT2 (change in sirtuin deacetylase activity, Z-score class) [2]: −−− (Z-score ≦ −3 = −−−)
- SIRT3 (change in sirtuin deacetylase activity, Z-score class) [3]: na (−2 ≦ Z-score < 2 = no activity (na))
- SIRT6 (change in sirtuin deacetylase activity, Z-score class) [4]: −− (−3 < Z-score ≦ −2 = −−)
- IC50 [5]: 15.8 µM
- IC90 [5]: 41.9 µM
- CC50 at 96 h [6]: > 50 µM

Structure (SMILES): Cc1cc(-c2ccccc2)nn1C1CN(Cc2cccc(C(F)(F)F)c2)C(=O)C1C(C)C (stereo not drawn)
- SIRT1 (change in sirtuin deacetylase activity, Z-score class) [1]: ++ (2 ≦ Z-score < 3 = ++)
- SIRT2 (change in sirtuin deacetylase activity, Z-score class) [2]: na (−2 ≦ Z-score < 2 = no activity (na))
- SIRT3 (change in sirtuin deacetylase activity, Z-score class) [3]: na (−2 ≦ Z-score < 2 = no activity (na))
- SIRT6 (change in sirtuin deacetylase activity, Z-score class) [4]: ++ (2 ≦ Z-score < 3 = ++)
- IC50 [5]: 8.43 µM
- IC90 [5]: 18.8 µM
- CC50 at 96 h [6]: 25 to 50 µM

Structure (SMILES): COc1ccc(C(C)C(CN2CCc3ccccc3C2)n2nc(-c3cccnc3)cc2N)cc1 (stereo not drawn)
- SIRT1 (change in sirtuin deacetylase activity, Z-score class) [1]: −−− (Z-score ≦ −3 = −−−)
- SIRT2 (change in sirtuin deacetylase activity, Z-score class) [2]: −− (−3 < Z-score ≦ −2 = −−)
- SIRT3 (change in sirtuin deacetylase activity, Z-score class) [3]: na (−2 ≦ Z-score < 2 = no activity (na))
- SIRT6 (change in sirtuin deacetylase activity, Z-score class) [4]: na (−2 ≦ Z-score < 2 = no activity (na))
- IC50 [5]: 27.7 µM
- IC90 [5]: 55.7 µM
- CC50 at 96 h [6]: > 50 µM
